Results on eight compounds are retold here after patent US20110009496A1, “RESVERATROL FORMULATIONS” (SIRTRIS PHARMACEUTICAS, INC., priority 2008, published 2011).

One series relates to HDAC. As to conditions: in vitro or in vivo; cited from earlier work.
Series [1] deals with cytochrome oxidase (Complex IV) (Homo sapiens, UniProt P00395). The settings on record: cited from earlier work.
The target of a further series is Sir2 (Saccharomyces cerevisiae, UniProt P06700). The settings on record: cited from earlier work.
Sir2, sequence (P06700 whole entry): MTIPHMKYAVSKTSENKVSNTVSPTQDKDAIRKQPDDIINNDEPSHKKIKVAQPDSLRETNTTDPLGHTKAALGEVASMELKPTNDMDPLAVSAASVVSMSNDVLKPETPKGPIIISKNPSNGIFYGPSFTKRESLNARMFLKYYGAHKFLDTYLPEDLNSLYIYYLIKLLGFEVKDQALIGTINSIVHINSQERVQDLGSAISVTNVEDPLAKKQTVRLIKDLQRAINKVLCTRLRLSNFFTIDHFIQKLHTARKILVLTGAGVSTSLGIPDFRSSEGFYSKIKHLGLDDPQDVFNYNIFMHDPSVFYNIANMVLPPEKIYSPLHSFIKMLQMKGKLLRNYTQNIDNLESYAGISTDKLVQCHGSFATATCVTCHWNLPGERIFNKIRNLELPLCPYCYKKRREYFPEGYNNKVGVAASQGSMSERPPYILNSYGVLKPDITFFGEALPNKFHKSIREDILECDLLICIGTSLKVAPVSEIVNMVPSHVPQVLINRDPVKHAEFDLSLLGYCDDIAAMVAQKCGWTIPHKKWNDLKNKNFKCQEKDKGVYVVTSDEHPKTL
Another series relates to retinal ganglion cells. The settings on record: treated animals; cited from earlier work.
For another series, the system named is C. elegans. The settings on record: in vivo; cited from earlier work.
In another series the test system is mammalian cells. As to conditions: cited from earlier work.
Series [2] is described as follows: Dilution of liquid resveratrol formulations with purified water (precipitation). The class given is physicochemical. As to conditions: DS dissolved in Gelucire 44/14 at 100 mg/g. The procedure:
A liquid formulation was prepared by dissolving resveratrol (drug substance, DS) and monoacyl phospholipid in a mixture of PEG 300 and propyleneglycol. The ratio between the DS and phospholipid was 1/12 w/w in PEG 300/propyleneglycol 1/1 w/was solvent mixture. The formulation, which has a 5% drug load, was clear after dilution in purified water for more than 4 hours. Starting from Formulation 13, the drug load was increased to 10% using the same 1/1 w/w ratio of Vit E TPGS/DS and replacing propyleneglycol with Labrasol™. Upon one-fold dilution with water a slight DS precipitation was observed. […] After a few hours, some oil droplets were visible on the surface of the water phase. To further improve Formulation 11, the use of the two lipids Gelucire™ 44/14 and Labrasol™ were explored as main components in the formulations. […] The DS precipitated in the form of oil-like droplets. […] Higher drug loads can be achieved by using the two lipids in combination with ethanol as additional solvent/excipient to fully solubilize the drug in the formulation.

The test system of the next series is insulin resistant cells. The settings on record: cited from earlier work.
For series [3] the following is noted: topical; cited from earlier work.

As for `O=C(/C=C/c1cccc(C(=O)NO)c1)NO` [CBHA, m-carboxy-cinnamic acid bishydroxamic acid], in the series on HDAC, the “inhibition of HDAC (concentration level in words)” value (from here on “inhibition of HDAC”) was “micromolar concentration or lower”. With `C/C=C1\NC(=O)[C@H]2CSSCC/C=C/[C@H](CC(=O)N[C@H](C(C)C)C(=O)N2)OC(=O)[C@H](C(C)C)NC1=O` [Depsipeptide, depsipeptide], the “inhibition of HDAC” value with HDAC is listed as “micromolar concentrations”.

Take `[N]=O` [Nitric oxide]: the “concentration that inhibits cytochrome oxidase (Complex IV)” value in series [1] was “about 1 micromolar”. With `CC(/C=C/C(=O)NO)=C\[C@@H](C)C(=O)c1ccc(N(C)C)cc1` [TSA, trichostatin A], the “sensitivity of Sir2 to histone deacetylase inhibitors” value at Sir2 is recorded as “insensitive”. Also, in the series on HDAC, the “inhibition of HDAC” value was “potent inhibitor”. For the compound `N=C(N)NN` [aminoguanidine], the “loss of retinal ganglion cells” value in the series on retinal ganglion cells is reported as “reduction in the loss of retinal ganglion cells”. Turning to `Oc1ccc(/C=C/c2cc(O)cc(O)c2)cc1` [resveratrol, 3,5,4′-trihydroxystilbene], in the series on C. elegans, the “fat accumulation in C. elegans” value is given as “prevent fat accumulation” and the “fat mobilization in C. elegans” value is “promotes fat mobilization”. Also, in the series on mammalian cells, the “adipogenesis in mammalian cells” value is given as “inhibit adipogenesis” and the “fat mobilization in mammalian cells” value is “stimulate fat mobilization”. Also, the “precipitation after dilution with purified water” value in [2] is “precipitated in a fast manner”. Further, the “insulin sensitivity in insulin resistant cells” value in the series on insulin resistant cells is “at least partially restore insulin sensitivity”.

In the case of `CC(C)(C)NC[C@H](O)COc1nsnc1N1CCOCC1` [timolol], in series [3], the “time for IOP to fall” value was 30 min and the “time of peak effects on IOP” value was 1 to 2 h.

In the case of depudecin, in the series on HDAC, the “inhibition of HDAC” value is on record as “micromolar concentrations”.
